Source: patent US20250257051A1, “SUBSTITUTED PYRIMIDINE COMPOUNDS AS TYK2 INHIBITORS” (1910 Genetics Inc., priority 2022, published 2025)
pKd: −log10 of the molar value. Where “and” joins values, the source holds several entries; their conditions need not be identical. Equal values may be shown once. Where a name gives a salt, the structure may show the parent alone.

The compounds below were run against human TYK2 (JH2domain-pseudokinase) (Homo sapiens (Human), UniProt P29597) (assay: TYK2 JH2 Domain Binding Assay (KINOMEscan competition binding)). Conditions: KINOMEscan; 11-point 3-fold dilution, top concentration 30,000 nM; Kd measurements in duplicate; read-out: TYK JH2 (Kd).
Experimental: Binding constants for compounds disclosed herein may be determined by the KINOMEscan® assay developed by DiscoveRx. KINOMEscan® is based on a competition binding assay that quantitatively measures the ability of a compound to compete with an immobilized, active-site directed ligand. The assay is performed by combining three components: DNA-tagged kinase; immobilized ligand; and a test compound. The ability of the test compound to compete with the immobilized ligand is measure via quantitative PCR of the DNA tag.
Binding constants for compounds disclosed herein against the JH2 domain are determined by the following protocol for a KINOMEscan® assay (DiscoveRx). A fusion protein of a partial length construct of human TYK2 (JH2domain-pseudokinase) (amino acids G556 to D888 based on reference sequence NP 003322.3) and the DNA binding domain of NFkB is expressed in transiently transfected HEK293 cells. From these HEK 293 cells, extracts are prepared in M-PER extraction buffer (Pierce) in the presence of Protease Inhibitor Cocktail Complete (Roche) and Phosphatase Inhibitor Cocktail Set II (Merck) per manufacturers' instructions. The TYK2 (JH2domain-pseudokinase) fusion protein is labeled with a chimeric double-stranded DNA tag containing the NFkB binding site (5′-GGGAATTCCC-3′) fused to an amplicon for qPCR readout, which is added directly to the expression extract (the final concentration of DNA-tag in the binding reaction is 0.1 nM).
Streptavidin-coated magnetic beads (Dynal M280) are treated with a biotinylated small molecule ligand for 30 minutes at room temperature to generate affinity resins for the binding assays. The liganded beads are blocked with excess biotin and washed with blocking buffer (SeaBlock (Pierce), 1% BSA, 0.05% Tween 20, 1 mM DTT) to remove unbound ligand and to reduce nonspecific binding.
Extracts are used directly in binding assays without any enzyme purification steps at a >10,000-fold overall stock dilution (final DNA tagged enzyme concentration<0.1 nM). Extracts are loaded with DNA-tag and diluted into the binding reaction in a two-step process. First extracts are diluted 1:100 in 1× binding buffer (PBS/0.05% Tween 20/10 mM DTT/0.1% BSA/[…] sonicated salmon sperm DNA) containing 10 nM DNA-tag. This dilution is allowed to equilibrate at room temperature for 15 minutes and then subsequently diluted 1:100 in 1× binding buffer. Test compounds are prepared as 111× stocks in 100% DMSO. Kds are determined using an 11-point 3-fold compound dilution series with three DMSO control points. All compounds for Kd measurements are distributed by acoustic transfer (non-contact dispensing) in 100% DMSO. The compounds are then diluted directly into the assays such that the final concentration of DMSO is 0.9%. All reactions performed in polypropylene 384-well plates. Each is a final volume of 0.02 mL. Assays are incubated with shaking for 1 hour at room temperature. Then the beads are pelleted and washed with wash buffer (lx PBS, 0.05% Tween 20) to remove displaced kinase and test compound. The washed beads are re-suspended in elution buffer (lx PBS, 0.05% Tween 20, 0.5 μM non-biotinylated affinity ligand) and incubated at room temperature with shaking for 30 minutes. The kinase concentration in the eluates is measured by qPCR. qPCR reactions are assembled by adding 2.5 μL of kinase eluate to 7.5 μL of qPCR master mix containing 0.15 μM amplicon primers and 0.15 μM amplicon probe. The qPCR protocol consists of a 10-minute hot start at 95° C., followed by 35 cycles of 95° C. for 15 seconds, 60° C. for 1 minute.
Test compounds are prepared as 111× stocks in 100% DMSO. Kds are determined using an 11-point 3-fold compound dilution series with three DMSO control points. All compounds for Kd measurements are distributed by acoustic transfer (non-contact dispensing) in 100% DMSO. The compounds are then diluted directly into the assays such that the final concentration of DMSO is 0.9%. […]

Sequence of human TYK2 (JH2domain-pseudokinase) (P29597 556-888): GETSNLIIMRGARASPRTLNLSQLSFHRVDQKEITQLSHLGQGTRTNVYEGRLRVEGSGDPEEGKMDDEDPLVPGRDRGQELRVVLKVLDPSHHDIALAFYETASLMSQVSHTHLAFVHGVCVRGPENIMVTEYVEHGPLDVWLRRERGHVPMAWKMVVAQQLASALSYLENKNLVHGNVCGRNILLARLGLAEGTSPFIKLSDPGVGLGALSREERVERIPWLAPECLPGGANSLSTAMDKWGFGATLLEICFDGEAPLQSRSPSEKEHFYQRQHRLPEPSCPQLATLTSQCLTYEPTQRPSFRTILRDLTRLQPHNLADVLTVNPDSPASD

With `CC1CN(C(=O)OC(C)(C)C)CCN1c1ncc(C(N)=O)c(Nc2ccccc2S(C)(=O)=O)n1` (racemic) [Compound 55, Tert-Butyl 4-(5-carbamoyl-4-((2-(methylsulfonyl)phenyl)amino)pyrimidin-2-yl)-3-methylpiperazine-1-carboxylate] as the compound, how does the pKd read?
Its pKd is 6.74.

`CC(=O)N1CCN(c2ncc(C(N)=O)c(Nc3ccccc3S(C)(=O)=O)n2)C(C)C1` (racemic) [Compound 62, 2-(4-acetyl-2-methylpiperazin-1-yl)-4-((2-(methylsulfonyl)phenyl)amino)pyrimidine-5-carboxamide] was tested. Which pKd did it give?
Its pKd is 6.92.

How did the pKd turn out when `CC1CNCCN1c1ncc(C(N)=O)c(Nc2ccccc2S(C)(=O)=O)n1` (racemic) [Compound 63, 2-(2-methylpiperazin-1-yl)-4-((2-(methylsulfonyl)phenyl)amino)pyrimidine-5-carboxamide hydrochloride] was run?
Its pKd is 5.85.

How did the pKd turn out when `CNC(=O)c1cnc(N2CCC(C(=O)NC)C2)nc1Nc1ccc(C2CC2)nc1` (stereo not drawn) [Compound 1, 4-((6-cyclopropylpyridin-3-yl)amino)-N-methyl-2-(3-(methylcarbamoyl)pyrrolidin-1-yl)pyrimidine-5-carboxamide] was run?
The pKd was 6.77.

With `NC(=O)c1cnc(N2CCCC2)nc1Nc1ccc(C2CC2)nc1` [Compound 2, 4-((6-cyclopropylpyridin-3-yl)amino)-2-(pyrrolidin-1-yl)pyrimidine-5-carboxamide] as the compound, how does the pKd read?
Its pKd is 7.92.

How did the pKd turn out when `CNC(=O)[C@H]1CCN(c2ncc(C(N)=O)c(Nc3ccc(C4CC4)nc3)n2)C1` [Compound 3, (S)-4-((6-cyclopropylpyridin-3-yl)amino)-2-(3-(methylcarbamoyl)pyrrolidin-1-yl)pyrimidine-5-carboxamide] was run?
The pKd was 7.27.

With `CNC(=O)[C@@H]1CCN(c2ncc(C(N)=O)c(Nc3ccc(C4CC4)nc3)n2)C1` [Compound 4, (R)-4-((6-cyclopropylpyridin-3-yl)amino)-2-(3-(methylcarbamoyl)pyrrolidin-1-yl)pyrimidine-5-carboxamide] as the compound, how does the pKd read?
Its pKd is 7.42.

With `CNC(=O)c1cnc(N2CC[C@@H](C(=O)NC)C2)nc1Nc1cccc(-c2ncc(F)cn2)c1OC` [Compound 5, (R)-4-((3-(5-fluoropyrimidin-2-yl)-2-methoxyphenyl)amino)-N-methyl-2-(3-(methylcarbamoyl)pyrrolidin-1-yl)pyrimidine-5-carboxamide] as the compound, how does the pKd read?
The pKd was 9.16.

With `CNC(=O)c1cnc(N2CC[C@H](C(=O)NC)C2)nc1Nc1ccc(C2CC2)nc1` [Compound 6, (S)-4-((6-cyclopropylpyridin-3-yl)amino)-N-methyl-2-(3-(methylcarbamoyl)pyrrolidin-1-yl)pyrimidine-5-carboxamide] as the compound, how does the pKd read?
Its pKd is 6.37.

`CNC(=O)c1cnc(N2CC[C@H](C(=O)NC)C2)nc1Nc1cccc(-c2ncc(F)cn2)c1OC` [Compound 7, (S)-4-((3-(5-fluoropyrimidin-2-yl)-2-methoxyphenyl)amino)-N-methyl-2-(3-(methylcarbamoyl)pyrrolidin-1-yl)pyrimidine-5-carboxamide] was tested. Which pKd did it give?
The pKd was 8.41.

How did the pKd turn out when `CNC(=O)c1cnc(N2CCCC2)nc1Nc1ccc(C(=O)N2CCOCC2)cc1` [Compound 8, N-methyl-4-((4-(morpholine-4-carbonyl)phenyl)amino)-2-(pyrrolidin-1-yl)pyrimidine-5-carboxamide] was run?
Its pKd is 6.44.

How did the pKd turn out when `CNC(=O)c1cnc(N2CC[C@@H](C(=O)NC)C2)nc1Nc1ccc(C2CC2)nc1` [Compound 9, (R)-4-((6-cyclopropylpyridin-3-yl)amino)-N-methyl-2-(3-(methylcarbamoyl)pyrrolidin-1-yl)pyrimidine-5-carboxamide] was run?
Its pKd is 6.62.

With `CC(=O)N1CCN(c2ncc(C(N)=O)c(Nc3ccc(C4CC4)nc3)n2)C(C)C1` (stereo not drawn) [Compound 11, 2-(4-acetyl-2-methylpiperazin-1-yl)-4-((6-cyclopropylpyridin-3-yl)amino)pyrimidine-5-carboxamide] as the compound, how does the pKd read?
The pKd was 6.74.

With `CC1CNCCN1c1ncc(C(N)=O)c(Nc2ccc(C3CC3)nc2)n1` (stereo not drawn) [Compound 12, 4-((6-cyclopropylpyridin-3-yl)amino)-2-(2-methylpiperazin-1-yl)pyrimidine-5-carboxamide] as the compound, how does the pKd read?
Its pKd is 6.10.

`CC1CN(C(=O)OC(C)(C)C)CCN1c1ncc(C(N)=O)c(Nc2ccc(C3CC3)nc2)n1` (stereo not drawn) [Compound 13, Tert-Butyl 4-(S-carbamoyl-4-((6-cyclopropylpyridin-3-yl)amino)pyrimidin-2-yl)-3-methylpiperazine-1-carboxylate] was tested. Which pKd did it give?
The pKd was 6.00.

With `CNC(=O)c1cnc(N2CCN(C(=O)OC(C)(C)C)CC2C)nc1Nc1ccc(C2CC2)nc1` (stereo not drawn) [Compound 15, Tert-Butyl 4-(4-((6-cyclopropylpyridin-3-yl)amino)-5-(methylcarbamoyl)pyrimidin-2-yl)-3-methylpiperazine-1-carboxylate] as the compound, how does the pKd read?
The pKd was 4.38.

With `CCOC(=O)C1CCN(c2ncc(C(N)=O)c(Nc3ccccc3S(C)(=O)=O)n2)CC1` [Compound 16, Ethyl 1-(5-carbamoyl-4-((2-(methylsulfonyl)phenyl)amino)pyrimidin-2-yl)piperidine-4-carboxylate] as the compound, how does the pKd read?
Its pKd is 8.59.

`CCOC(=O)C1CCN(c2ncc(C(=O)NC)c(Nc3ccccc3S(C)(=O)=O)n2)CC1` [Compound 17, Ethyl 1-(5-(methylcarbamoyl)-4-((2-(methylsulfonyl)phenyl)amino)pyrimidin-2-yl)piperidine-4-carboxylate] was tested. Which pKd did it give?
The pKd was 7.68.

`CNC(=O)c1cnc(N2CCN(C(=O)OC(C)(C)C)CC2C)nc1Nc1ccccc1S(C)(=O)=O` (stereo not drawn) [Compound 18, Tert-Butyl 3-methyl-4-(5-(methylcarbamoyl)-4-((2-(methylsulfonyl)phenyl)amino)pyrimidin-2-yl)piperazine-1-carboxylate] was tested. Which pKd did it give?
The pKd was 6.36.

With `CNC(=O)c1cnc(N2CCC(C(=O)O)CC2)nc1Nc1ccc(C2CC2)nc1` [Compound 19, 1-(4-((6-cyclopropylpyridin-3-yl)amino)-5-(methylcarbamoyl)pyrimidin-2-yl)piperidine-4-carboxylic acid] as the compound, how does the pKd read?
Its pKd is 5.09.

How did the pKd turn out when `CCOC(=O)C1CCN(c2ncc(C(=O)NC)c(Nc3ccc(C4CC4)nc3)n2)CC1` [Compound 20, Ethyl 1-(4-((6-cyclopropylpyridin-3-yl)amino)-5-(methylcarbamoyl)pyrimidin-2-yl)piperidine-4-carboxylate] was run?
Its pKd is 5.60.

With `CNC(=O)c1cnc(N2CCCN(C(C)=O)CC2)nc1Nc1ccc(C2CC2)nc1` [Compound 21, 2-(4-acetyl-1,4-diazepan-1-yl)-4-((6-cyclopropylpyridin-3-yl)amino)-N-methylpyrimidine-5-carboxamide] as the compound, how does the pKd read?
The pKd was 4.85.

With `CNC(=O)c1cnc(N2CCCNCC2)nc1Nc1ccc(C2CC2)nc1` [Compound 22, 4-((6-cyclopropylpyridin-3-yl)amino)-2-(1,4-diazepan-1-yl)-N-methylpyrimidine-5-carboxamide Hydrochloride] as the compound, how does the pKd read?
Its pKd is 4.96.

`CNC(=O)c1cnc(N2CCN(C(C)=O)CC2C)nc1Nc1ccccc1OC` (stereo not drawn) [Compound 23, 2-(4-acetyl-2-methylpiperazin-1-yl)-4-((2-methoxyphenyl)amino)-N-methylpyrimidine-5-carboxamide] was tested. Which pKd did it give?
Its pKd is 5.80.

With `CNC(=O)c1cnc(N2CCCN(C(C)=O)CC2)nc1Nc1ccccc1OC` [Compound 24, 2-(4-acetyl-1,4-diazepan-1-yl)-4-((2-methoxyphenyl)amino)-N-methylpyrimidine-5-carboxamide] as the compound, how does the pKd read?
The pKd was 5.31.

With `CNC(=O)c1cnc(N2CCNCC2C)nc1Nc1cccc(-c2ncc(F)cn2)c1OC` (stereo not drawn) [Compound 25, 4-((3-(5-fluoropyrimidin-2-yl)-2-methoxyphenyl)amino)-N-methyl-2-(2-methylpiperazin-1-yl)pyrimidine-5-carboxamide Hydrochloride] as the compound, how does the pKd read?
Its pKd is 6.74.

Same assay, conditions: footnote a: the two measurements averaged for Cmpd. No. 5; read-out: TYK JH2 (Kd, nM), individual measurements

How did the Kd turn out when `CNC(=O)c1cnc(N2CC[C@@H](C(=O)NC)C2)nc1Nc1cccc(-c2ncc(F)cn2)c1OC` [Compound 5, (R)-4-((3-(5-fluoropyrimidin-2-yl)-2-methoxyphenyl)amino)-N-methyl-2-(3-(methylcarbamoyl)pyrrolidin-1-yl)pyrimidine-5-carboxamide] was run?
The Kd was 0.45 nM and 0.93 nM.
